Results from patent publication US5616563A, “Glutathione N-hydroxycarbamoyl thioesters and method of inhibiting neoplastic growth” (University of Maryland Baltimore Campus, priority 1994, dated 1997).

Tested on: human erythrocytes
Assay: Erythrocyte uptake of 35S-labeled compounds
Protocol: In order to test the ability of human erythrocytes to take up the above enediol and its ethyl ester derivative, suspensions of washed human erythrocytes were separately incubated with [^35 S] GSH, [^35 S]S-(N-hydroxy N-methylcarbamoyl) glutathione, and with [^35 S] S-(N-hydroxy N-methylcarbamoyl) glutathione[glycyl]-O-ethyl ester. The tests were conducted with 50:50 (v:v) erythrocytes in PBS buffer at 37° C. in the presence of 8.5 mM extracellular [^35 S] labeled compounds.

[1] = 0 h, 8.5 mM extracellular, 37° C.

Row | Extracellular Total 35S species (0 h) [mM] | Intracellular Total 35S species [1] | Extracellular Total 35S species (6 h) [mM] | Intracellular Total 35S species (6 h) [mM] | Extracellular Total 35S species (12 h) [mM] | Intracellular Total 35S species (12 h) [mM] | Extracellular Total 35S species (24 h) [mM] | Intracellular Total 35S species (24 h) [mM] | Extracellular Total 35S species (36 h) [mM] | Intracellular Total 35S species (36 h) [mM] | Extracellular Total 35S species (48 h) [mM] | Intracellular Total 35S species (48 h) [mM] | Structure (SMILES) | Extracellular [35S] S-(N-hydroxy N-methylcarbamoyl) glutathione (0 h) [mM] | Extracellular [35S] S-(N-hydroxy N-methylcarbamoyl) glutathione (6 h) [mM] | Extracellular [35S] S-(N-hydroxy N-methylcarbamoyl) glutathione (12 h) [mM] | Intracellular [35S] S-(N-hydroxy N-methylcarbamoyl) glutathione (12 h) | Extracellular [35S] S-(N-hydroxy N-methylcarbamoyl) glutathione (24 h) [mM] | Intracellular [35S] S-(N-hydroxy N-methylcarbamoyl) glutathione (24 h) [mM] | Extracellular [35S] S-(N-hydroxy N-methylcarbamoyl) glutathione (36 h) [mM] | Intracellular [35S] S-(N-hydroxy N-methylcarbamoyl) glutathione (36 h) [mM] | other results
1 | 8.54 | ~ 0.01 mM | 8.60 | 0.05 | 8.62 | 0.07 | 8.49 | 0.20 | 8.09 | 0.45 | 7.90 | 0.67 | CCOC(=O)CNC(=O)[C@H](CSC(=O)N(C)O)NC(=O)CC[C@H](N)C(=O)O [[^35 S] .box-solid., [^35 S] S-(N-Hydroxy N-Methyl Carbamoyl) Glutathione [Glycyl]-O-Ethyl Ester] | 1.27 | 1.27 | 1.42 | 0.02 mM | 1.65 | 0.05 | 1.83 | 0.14 | diffusion rate into erythrocytes relative to [35S] 2: ~ 2 fold; Extracellular [35S] S-(N-hydroxy N-methylcarbamoyl) glutathione glycyl-O-ethyl ester (0 h): 7.22 mM; Extracellular [35S] S-(N-hydroxy N-methylcarbamoyl) glutathione (0 h, listed as [^35 S] 2(Et)): 1.3 mM; Extracellular [35S] S-(N-hydroxy N-methylcarbamoyl) glutathione glycyl-O-ethyl ester (6 h): 7.17 mM; Intracellular [35S] S-(N-hydroxy N-methylcarbamoyl) glutathione (6 h): ~ 0.01 mM; Intracellular [35S] S-(N-hydroxy N-methylcarbamoyl) glutathione glycyl-O-ethyl ester (6 h): ~ 0.01 mM; Extracellular [35S] S-(N-hydroxy N-methylcarbamoyl) glutathione glycyl-O-ethyl ester (12 h): 7.02 mM; Intracellular [35S] S-(N-hydroxy N-methylcarbamoyl) glutathione glycyl-O-ethyl ester (12 h): 0.03 mM; Extracellular [35S] S-(N-hydroxy N-methylcarbamoyl) glutathione glycyl-O-ethyl ester (24 h): 6.62 mM; Intracellular [35S] S-(N-hydroxy N-methylcarbamoyl) glutathione glycyl-O-ethyl ester (24 h): 0.12 mM; Extracellular [35S] S-(N-hydroxy N-methylcarbamoyl) glutathione glycyl-O-ethyl ester (36 h): 6.01 mM; Intracellular [35S] S-(N-hydroxy N-methylcarbamoyl) glutathione glycyl-O-ethyl ester (36 h): 0.28 mM; Extracellular [35S] S-(N-hydroxy N-methylcarbamoyl) glutathione (48 h): 1.89 mM; Extracellular [35S] S-(N-hydroxy N-methylcarbamoyl) glutathione glycyl-O-ethyl ester (48 h): 5.70 mM; Intracellular [35S] S-(N-hydroxy N-methylcarbamoyl) glutathione (48 h): 0.24 mM; Intracellular [35S] S-(N-hydroxy N-methylcarbamoyl) glutathione glycyl-O-ethyl ester (48 h): 0.39 mM; final intracellular [35S] 2 relative to that expected from import of contaminating [35S] 2 (48 h): about 3 fold; Extracellular [35S] S-(N-hydroxy N-methylcarbamoyl) glutathione (48 h, listed as [^35 S] 2(Et)): 1.9 mM
2 | 8.48 | ~ 0 mM | 8.56 | 0.04 | 8.61 | 0.05 | 8.38 | 0.13 | 8.37 | 0.28 | 8.23 | 0.48 | N[C@@H](CCC(=O)N[C@@H](C[35SH])C(=O)NCC(=O)O)C(=O)O [[^35 S] GSH, reference compound] |  |  |  |  |  |  |  |  | Extracellular [35S] GSH (0 h): 7.95 mM; Extracellular [35S] GSSG (0 h): 0.43 mM; Extracellular [35S] GSH (6 h): 7.90 mM; Extracellular [35S] GSSG (6 h): 0.53 mM; Intracellular [35S] GSH (6 h): 0.02 mM; Intracellular [35S] GSSG (6 h): 0.02 mM; Extracellular [35S] GSH (48 h): 5.31 mM; Extracellular [35S] GSSG (48 h): 2.49 mM; Intracellular [35S] GSH (48 h): 0.10 mM; Intracellular [35S] GSSG (48 h): 0.27 mM

Row | Structure (SMILES) | Extracellular Total 35S species (0 h) [mM] | Intracellular Total 35S species [1] | Extracellular Total 35S species (6 h) [mM] | Intracellular Total 35S species (6 h) [mM] | Extracellular Total 35S species (12 h) [mM] | Intracellular Total 35S species (12 h) [mM] | Extracellular Total 35S species (24 h) [mM] | Intracellular Total 35S species (24 h) [mM] | Extracellular Total 35S species (36 h) [mM] | Intracellular Total 35S species (36 h) [mM] | Extracellular Total 35S species (48 h) [mM] | Intracellular Total 35S species (48 h) [mM] | Extracellular [35S] S-(N-hydroxy N-methylcarbamoyl) glutathione (0 h) [mM] | Extracellular [35S] S-(N-hydroxy N-methylcarbamoyl) glutathione (6 h) [mM] | Extracellular [35S] S-(N-hydroxy N-methylcarbamoyl) glutathione (12 h) [mM] | Intracellular [35S] S-(N-hydroxy N-methylcarbamoyl) glutathione (12 h) | Extracellular [35S] S-(N-hydroxy N-methylcarbamoyl) glutathione (24 h) [mM] | Intracellular [35S] S-(N-hydroxy N-methylcarbamoyl) glutathione (24 h) [mM] | Extracellular [35S] S-(N-hydroxy N-methylcarbamoyl) glutathione (36 h) [mM] | Intracellular [35S] S-(N-hydroxy N-methylcarbamoyl) glutathione (36 h) [mM] | other results
3 | CN(O)C(=O)SC[C@H](NC(=O)CC[C@H](N)C(=O)O)C(=O)NCC(=O)O [[^35 S] .circle-solid., [^35 S] S-(N-Hydroxy N-Methylcarbamoyl) Glutathione] | 8.44 | ~ 0 mM | 8.57 | 0.02 | 8.67 | 0.03 | 8.24 | 0.12 | 8.24 | 0.31 | 8.50 | 0.44 | 8.20 | 8.32 | 8.39 | ~ 0.01 mM | 7.96 | 0.08 | 7.96 | 0.26 | Extracellular [35S] GSH + [35S] GSSG (0 h): ~ 0.01 mM; Extracellular [35S] GSH + [35S] GSSG (6 h): 0.15 mM; Extracellular [35S] GSH + [35S] GSSG (12 h): 0.14 mM; Intracellular [35S] GSH + [35S] GSSG (12 h): ~ 0.01 mM; Extracellular [35S] GSH + [35S] GSSG (24 h): 0.14 mM; Intracellular [35S] GSH + [35S] GSSG (24 h): 0.03 mM; Extracellular [35S] GSH + [35S] GSSG (36 h): 0.13 mM; Intracellular [35S] GSH + [35S] GSSG (36 h): 0.04 mM; Extracellular [35S] GSH + [35S] GSSG (48 h): 0.14 mM; Extracellular [35S] S-(N-hydroxy N-methylcarbamoyl) glutathione (48 h): 8.19 mM; Intracellular [35S] GSH + [35S] GSSG (48 h): 0.04 mM; Intracellular [35S] S-(N-hydroxy N-methylcarbamoyl) glutathione (48 h): 0.37 mM
